From patent US11312711B2, “Morpholine derivative” (Hoffmann-La Roche Inc., priority 2016, dated 2022)
Where two headings read alike, the source gives them in different places.

Columns and labels:
[1] = target: human TAAR1 (Homo sapiens (Human), UniProt Q96RJ0); assay: cAMP functional assay in HEK293 cells expressing human TAAR1; assay type: cell-based; settings: for EC50: cAMP, HEK293 cells expressing human TAAR1, read-out: hTAAR1 EC50
Procedure: The Expand High Fidelity PCR System (Roche Diagnostics) was used with 1.5 mM Mg^2+ and purified PCR products were cloned into pCR2.1-TOPO cloning vector (Invitrogen) following the instructions of the manufacturer. PCR products were subcloned into the pIRESneo2 vector (BD Clontech, Palo Alto, Calif.), and expression vectors were sequence verified before introduction in cell lines.
HEK293 cells (ATCC #CRL-1573) were cultured essentially as described by Lindemann et al. (2005). For the generation of stably transfected cell lines HEK293 cells were transfected with the pIRESneo2 expression plasmids containing the TAAR coding sequences (described above) with Lipofectamine 2000 (Invitrogen) according to the instructions of the manufacturer, and 24 hrs post transfection the culture medium was supplemented with 1 mg/ml G418 (Sigma, Buchs, Switzerland). After a culture period of about 10 d clones were isolated, expanded and tested for responsiveness to trace amines (all compounds purchased from Sigma) with the cAMP Biotrak Enzyme immunoassay (EIA) System (Amersham) following the non-acetylation EIA procedure provided by the manufacturer.
cAMP measurements were performed as described previously (Revel et al., Proc. Natl. Acad. Sci. USA 2011, 108, 8485-8490). In brief, cells that expressed human TAAR1 were plated on 96-well plates (BIOCOAT 6640; Becton Dickinson, Allschwil, Switzerland) and incubated for 20 h at 37° C. Prior to stimulation of the cells with a broad concentration range of agonists for 30 min at 37° C., the cells were washed with PBS and preincubated with PBS that contained 1 mM 3-isobutyl-1-methylxanthine for 10 min at 37° C. and 5% CO2. Stimulation with 0.2% DMSO was set as the basal level, and the effect of 30 μM β-PEA was set as the maximal response. […] Finally, the plates were read with a luminometer (1420 Multilabel counter; PerkinElmer, Schwerzenbach, Switzerland), and the amount of cAMP was calculated. […]

[2] = target: human DAT (Homo sapiens (Human), UniProt Q01959); assay: Binding to dopamine transporter (DAT) in vitro, [3H]-WIN35,428 SPA
Procedure: Binding to dopamine transporter (DAT) in vitro. Human embryonic kidney (HEK) 293 cells (Invitrogen, Zug, Switzerland) stably transfected with human DAT were cultured. The cells were collected and washed three times with phosphate-buffered saline (PBS). The pellets were frozen at −80° C. The pellets were then resuspended in 400 ml of 20 mM HEPES-NaOH, pH 7.4, that contained 10 mM EDTA at 4° C. […] Aliquots of the membrane stocks were frozen at −80° C. All assays were performed at least three times. The test compounds were diluted in […] of binding buffer (252 mM NaCl, 5.4 mM KCl, 20 mM Na2HPO4, 3.52 mM KH2PO4, pH 7.4) and 10 point dilution curves were made and transferred to 96-well white polystyrene assay plates (Sigma-Aldrich, Buchs, Switzerland). […] Twenty microliters of binding buffer alone in the assay plate defined the total binding, whereas binding in the presence of 10 μM indatraline defined nonspecific binding. Frozen DAT membrane stocks were thawed and resuspended to a concentration of approximately 0.04 mg protein/ml binding buffer (1:1 diluted in H2O) using a polytron tissue homogenizer. The membrane homogenates (40 μg/ml) were then lightly mixed for 5-30 min with polyvinyl toluene […] wheat germ agglutinin-coated scintillation proximity assay (WGASPA; Amersham Biosciences) beads at 7.7 mg beads/ml homogenate. One hundred thirty microliters of the membrane/bead mixture were added to each well of the assay plate that contained radioligand and test compounds (final volume in each well, 200 μl) to start the assay, which was incubated for approximately 2 h at room temperature with agitation. The assay plates were then counted in the PVT SPA counting mode of a Packard Topcount. […] Non-linear regression was used to fit the data to sigmoid curves and determine IC50 values for binding and uptake. Ki values for binding and uptake were calculated using the following Cheng-Prusoff equation: Ki=IC50/(1+[S]/Km).

[3] = target: hERG potassium channels (Homo sapiens (Human), UniProt Q12809); assay: Whole-cell patch-clamp on hERG potassium channels in stably transfected CHO cells; assay type: cell-based
Procedure: The whole-cell patch-clamp technique was used to investigate the effects of the test items on hERG (human-ether-a-go-go related gene) potassium channels in stably transfected CHO cells near physiological temperature (36±1° C.). The effects of compounds on hERG K^+-current parameters were evaluated at 4 concentrations (0.3-3-30-300 μM) in at least 3 CHO cells stably expressing the hERG channel. For electrophysiological measurements cells were seeded onto 35 mm sterile culture dishes containing 2 ml culture medium without Hygromycin B. Cells were cultivated at a density that enabled single cells (without visible connections to neighbouring cells) to be measured. Cells were incubated at 37° C. in a humidified atmosphere with 5% CO2 (rel. humidity about 95%). The cells were continuously maintained in and passaged in sterile culture flasks containing nutrient mixture F-12 (DMEM/F-12 with L-Glutamine) supplemented with 10% foetal bovine serum and 10% penicillin/streptomycin solution. […] The 35 mm culture dishes upon which cells were seeded at a density allowing single cells to be recorded were placed on the dish holder of the microscope and continuously perfused (at approximately 1 ml/min) with the bath solution (sodium chloride 150 mM, potassium chloride 4 mM, calcium chloride 1.2 mM, magnesium chloride 1 mM, HEPES 10 mM, pH (NaOH) 7.4) at near physiological temperature (36±1° C.). After formation of a Gigaohm seal between the patch electrodes and individual hERG stably transfected CHO cells (pipette resistance range: 2.0 MΩ-7.0 MΩ; seal resistance range: >1 GΩ) the cell membrane across the pipette tip was ruptured to assure electrical access to the cell interior (whole-cell patch-configuration). In case the quality of the seal was poor, the process of seal formation was repeated with a different cell and a new pipette. […] This voltage protocol was run at least 10 times at intervals of 10 s. If current density was judged to be too low for measurement, another cell was recorded. […] During wash-in of the test item the voltage protocol indicated above was run continuously again at 10 s intervals until the steady-state level of block was reached. The four test item concentrations of the compound were applied sequentially to 3 cells in a cumulative manner. […] Based on the IC50 value the IC20 was estimated. Each concentration of the test item was analyzed in three experiments (n=3).

[4] = target: mutant DAT (Mus musculus (Mouse), UniProt Q61327, A109V/F105C/L104V); settings: cocaine-insensitive DAT; cited from earlier work

human TAAR1, sequence (Q96RJ0 whole entry): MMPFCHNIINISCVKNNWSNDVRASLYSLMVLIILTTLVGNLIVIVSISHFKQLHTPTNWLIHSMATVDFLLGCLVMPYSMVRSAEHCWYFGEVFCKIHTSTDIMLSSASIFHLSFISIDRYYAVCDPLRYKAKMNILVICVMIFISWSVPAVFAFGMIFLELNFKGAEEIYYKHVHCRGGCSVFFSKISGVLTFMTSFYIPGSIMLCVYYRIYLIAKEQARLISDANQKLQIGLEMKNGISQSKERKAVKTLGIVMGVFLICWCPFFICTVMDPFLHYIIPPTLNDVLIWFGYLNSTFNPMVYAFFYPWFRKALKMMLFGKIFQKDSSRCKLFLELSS
human DAT, sequence (Q01959 whole entry): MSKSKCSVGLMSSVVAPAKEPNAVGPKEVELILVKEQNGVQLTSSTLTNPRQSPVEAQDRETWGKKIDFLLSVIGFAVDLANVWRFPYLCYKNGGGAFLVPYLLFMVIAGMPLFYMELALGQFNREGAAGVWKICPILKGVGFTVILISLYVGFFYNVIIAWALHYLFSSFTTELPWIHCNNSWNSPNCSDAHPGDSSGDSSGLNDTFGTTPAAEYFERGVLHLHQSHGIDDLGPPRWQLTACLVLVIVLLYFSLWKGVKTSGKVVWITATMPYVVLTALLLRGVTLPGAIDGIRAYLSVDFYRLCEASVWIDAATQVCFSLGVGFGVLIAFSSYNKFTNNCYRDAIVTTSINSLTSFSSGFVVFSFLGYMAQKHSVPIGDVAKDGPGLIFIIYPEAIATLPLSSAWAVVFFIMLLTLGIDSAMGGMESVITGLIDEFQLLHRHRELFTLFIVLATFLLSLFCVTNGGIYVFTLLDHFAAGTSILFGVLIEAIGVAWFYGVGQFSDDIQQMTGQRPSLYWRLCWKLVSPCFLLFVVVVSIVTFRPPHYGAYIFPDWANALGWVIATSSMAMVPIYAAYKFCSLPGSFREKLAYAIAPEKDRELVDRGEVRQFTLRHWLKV
hERG potassium channels, sequence (Q12809 whole entry): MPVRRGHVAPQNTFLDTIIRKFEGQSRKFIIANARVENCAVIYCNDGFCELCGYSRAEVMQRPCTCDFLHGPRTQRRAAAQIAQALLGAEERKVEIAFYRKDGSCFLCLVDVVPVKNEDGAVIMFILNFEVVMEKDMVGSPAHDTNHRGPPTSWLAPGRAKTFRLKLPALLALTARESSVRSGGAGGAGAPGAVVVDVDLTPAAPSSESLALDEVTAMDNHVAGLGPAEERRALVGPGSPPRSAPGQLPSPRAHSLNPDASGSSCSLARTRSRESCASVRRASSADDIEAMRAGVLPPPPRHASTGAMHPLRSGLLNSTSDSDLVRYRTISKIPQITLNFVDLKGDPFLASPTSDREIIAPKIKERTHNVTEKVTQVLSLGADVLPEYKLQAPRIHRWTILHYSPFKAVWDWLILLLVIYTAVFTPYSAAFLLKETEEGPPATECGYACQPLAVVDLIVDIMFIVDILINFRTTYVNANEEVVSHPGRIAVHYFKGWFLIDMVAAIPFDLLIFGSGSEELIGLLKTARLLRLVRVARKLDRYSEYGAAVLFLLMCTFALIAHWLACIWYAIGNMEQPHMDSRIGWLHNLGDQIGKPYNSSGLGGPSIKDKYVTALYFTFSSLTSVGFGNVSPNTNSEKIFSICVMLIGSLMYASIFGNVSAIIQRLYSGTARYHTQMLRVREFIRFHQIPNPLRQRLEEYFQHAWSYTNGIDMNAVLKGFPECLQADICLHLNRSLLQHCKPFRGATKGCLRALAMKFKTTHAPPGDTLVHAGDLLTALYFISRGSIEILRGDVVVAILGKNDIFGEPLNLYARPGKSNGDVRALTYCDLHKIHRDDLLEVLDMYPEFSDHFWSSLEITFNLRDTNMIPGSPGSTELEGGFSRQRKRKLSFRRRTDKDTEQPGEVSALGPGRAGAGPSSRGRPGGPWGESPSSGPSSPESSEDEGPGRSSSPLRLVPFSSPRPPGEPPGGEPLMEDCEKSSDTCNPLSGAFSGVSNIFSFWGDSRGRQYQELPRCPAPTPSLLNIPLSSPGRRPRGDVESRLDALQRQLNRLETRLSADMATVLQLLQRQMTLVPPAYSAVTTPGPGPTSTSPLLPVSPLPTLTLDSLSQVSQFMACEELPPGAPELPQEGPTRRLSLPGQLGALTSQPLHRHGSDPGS

Row | Compound | hTAAR1 efficacy ([1]; % agonist activity, β-phenylethylamine = 100% agonism) | EC50 ([1]; listed as Comparative example 12) | EC50 [1] | Ratio DAT Ki/hTAAR1 EC50 [2] | DAT selectivity ratio versus hTAAR1 EC50 ([2]; DAT Ki versus hTAAR1 EC50) | Ki ([2]; [3H]-WIN35,428 radioligand) | Ratio hERG IC20/hTAAR1 EC50 [3] | IC20 ([3]; estimated based on the IC50 value) | hERG selectivity ratio versus hTAAR1 EC50 ([3]; hERG IC20 versus hTAAR1 EC50) | IC50 ([3]; patch-clamp, CHO cells, 36±1° C.) | lower affinity of mutant DAT for cocaine relative to wild-type DAT [4]
1 | 5-Chloro-N-[4-[(2S)-morpholin-2-yl]phenyl]pyridine-2-carboxamide [Example 12] | 40% | 0.212 µM | 0.212 µM | 8 | 8 fold | 1.78 µM | 15 | 3.21 µM | 15 fold | 14.3 µM | 
2 | COC(=O)[C@H]1[C@@H](OC(=O)c2ccccc2)C[C@@H]2CC[C@H]1N2C [cocaine] |  |  |  |  |  |  |  |  |  |  | 89 fold
